We go through 21 compounds from patent publication US9145354B2, “Pharmaceutical compounds” (priority 2011, dated 2015).

The structures appear in SMILES notation. Read-outs that look alike come from different tables or passages of the source.

Data set [1] has as its target full length NS3/4a (Hepatitis C virus genotype 1b (isolate BK) (HCV), UniProt P26663). In words: NS3 Protease Assay (Example A), FRET-based. Type of data set: biochemical. The essentials: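 Initial rates were taken from fluorescence progress curves over 30 min at room temperature, and IC50 was fitted across replicates. In-house full-length NS3/4a cleaved a FRET peptide (5-FAMsp/QXL520) from the NS4A/B site. Medium: 50 mM Tris pH8, 20 mM DTT, 1% CHAPS, 10% glycerol, 5% DMSO.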

For data set [2], the system named is HCV subgenomic replicon in Huh-7 cells. The experiment in a line: Replicon Assay (Example B), luciferase readout EC50. Type of data set: cell-based. To be noted: Hepatitis C virus, Huh-7, replicon assay, luciferase readout; upper value of the cell pair; read-out: Assay B EC50. Here is the method:
The activities of compounds of the invention against HCV in a cellular environment were analysed using a replicon assay as described below.
(§1) Thus, Huh-7 cells persistently infected with an HCV-RNA construct (Bartenschlager, R. Hepatitis C replicons: potential role for drug development. Nature Rev. Drug Discov. 1, 911-916 (2002)) comprising: 5′ and 3′ non-translated regions (NTR); the non-structural genes NS3 to NS5b; as well as the G418 drug resistance gene, neomycin, (for selection of cells carrying HCV replicon RNA) fused to the firefly Luciferase reporter gene (pFKI3889Iuc-ubi-neo/NS3-3′/ET) were used to determine the cell based antiviral activity of compounds using luciferase activity as an indirect readout of HCV RNA load. In this assay […] huh-7 cells persistently infected with the HCV subgenomic replicon construct above were plated/well in a 96 well tissue culture plate. The cells were allowed to attach overnight in DMEM medium supplemented with 10% FBS 1% NEAA, and 250 μg/ml gentamicin. The following day the medium was replaced with 200 μl/well of fresh medium as described above lacking gentamicin. Semilog dilutions of compounds in medium were then added to triplicate wells (non-edge) of the cultured cells to give a 0.1% DMSO final concentration. Plates were then incubated at 37° C. in an atmosphere of 5% CO2 and air for 72 h. […] The plate was then read at 535 nm (excitation) and 590 nm (emission) on a SpectraMax Gemini reader (Molecular Devices) to determine the number of viable cells by measuring the conversion of rezasurin (Alamar blue) to resorufin in response to mitochondrial activity. In order to determine the antiviral effect of these compounds EC50 values were determined by measuring the luciferase activity of the cells. Alamar blue solution was removed from the wells and replaced with 100 μl/well of medium along with 100 μl/well of Bright-Glo reagent and incubated at room temperature for 5 minutes before transferring 100 μl/well to a white bottom 96 well plate to read in a luminometer as described in the Bright-Glo Luciferase Assay System protocol (promega).
For orientation: Replicon systems follow genome replication, usually without infectious particles.

The nature of data set [3]: Replicon Assay (Example B), Alamar Blue cytotoxicity CC50. It counts as cell-based. The conditions noted are these: human, lower value of the cell pair.
Excerpt: as §1

The mark [4] stands for this setting: HCV NS3 protease assay, full length NS3/4a, read-out: Assay A IC50 (μM) average.
The mark [5] stands for this setting: read-out: IC50 against the protease activity of the full length NS3/4a.

full length NS3/4a, sequence (P26663 1027-1657): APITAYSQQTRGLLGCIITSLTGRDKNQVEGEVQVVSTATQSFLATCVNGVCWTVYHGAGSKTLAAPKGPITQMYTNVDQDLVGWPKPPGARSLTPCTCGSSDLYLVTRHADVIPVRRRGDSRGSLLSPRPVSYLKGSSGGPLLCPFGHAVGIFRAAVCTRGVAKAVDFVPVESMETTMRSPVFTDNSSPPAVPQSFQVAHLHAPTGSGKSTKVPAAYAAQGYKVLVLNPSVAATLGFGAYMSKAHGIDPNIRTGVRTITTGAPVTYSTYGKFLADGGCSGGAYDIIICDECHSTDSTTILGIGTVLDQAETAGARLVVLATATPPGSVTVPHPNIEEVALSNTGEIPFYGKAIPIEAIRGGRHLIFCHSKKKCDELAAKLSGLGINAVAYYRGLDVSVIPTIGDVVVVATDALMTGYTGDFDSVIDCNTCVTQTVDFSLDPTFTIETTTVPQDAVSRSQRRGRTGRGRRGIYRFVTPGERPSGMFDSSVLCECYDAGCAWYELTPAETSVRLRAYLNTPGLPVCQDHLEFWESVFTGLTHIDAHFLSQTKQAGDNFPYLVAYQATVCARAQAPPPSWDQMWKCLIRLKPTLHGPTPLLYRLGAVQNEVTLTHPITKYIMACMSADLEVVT

As a reminder, the EC50 is the concentration that produces a half-maximal response. As usually defined, the CC50 is the concentration giving 50% cytotoxicity. Low readings indicate greater toxicity to the cells, high ones lower toxicity to the cells. Consider `CC[C@@H](N[C@@H](C)CC(N)=O)c1ccc(Cl)c(C(=O)c2ccc(C#N)cc2)c1F` [Example 91, (3S)-3-{[(1R)-1-{4-chloro-3-[(4-cyanophenyl)carbonyl]-2-fluorophenyl}propyl]amino}-butanamide], for which the IC50 in data set [1] (setting [4]) amounted to 0.066 µM. The EC50 in data set [2] was 1.2 nM. The compound also yielded a 50% cytotoxic concentration (CC50) at 72 h in data set [3] greater than 10000 nM.

As to `CC[C@@H](N[C@@H](C)CC(N)=O)c1ccc(Cl)c(C(=O)c2cccnc2)c1F` [Example 93, (3S)-3-{[(1R)-1-{4-chloro-2-fluoro-3-[(pyridin-3-yl)carbonyl]phenyl}propyl]-amino}butanamide], the IC50 in data set [1] (setting [4]) amounted to 0.14 µM. Also, the concentration for a half-maximal effect (EC50) in data set [2] was 510 nM. For the same compound, the half-maximal cytotoxic concentration (CC50) at 72 h in data set [3] was greater than 3000 nM.

With `CC[C@@H](N[C@@H](C)CC(N)=O)c1ccc(Cl)c(C(=O)c2cccc(F)c2)c1F` [Example 95, (3S)-3-{[(1R)-1-{4-chloro-2-fluoro-3-[(3-fluorophenyl)-carbonyl]-phenyl}propyl]-amino}-butanamide], the IC50 in data set [1] (setting [4]) turned out to be 0.085 µM. Also, the EC50 in data set [2] was determined as 41 nM. In data set [3], the CC50 at 72 h is greater than 3000 nM.

As to `CC[C@@H](N[C@@H](C)CC(N)=O)c1ccc(Cl)c(C(=O)c2ccc(F)cc2)c1F` [Example 97, (3S)-3-{[(1R)-1-{4-chloro-2-fluoro-3-[(4-fluorophenyl)-carbonyl]-phenyl}propyl]-amino}-butanamide], the IC50 in data set [1] (setting [4]) is 0.047 µM. The EC50 in data set [2] came to 19 nM. In addition, the CC50 at 72 h in data set [3] is greater than 3000 nM.

For `CC[C@@H](N[C@@H](C)CC(N)=O)c1ccc(Cl)c(C(=O)c2cccc(C#N)c2)c1F` [Example 101, (3S)-3-{[(1R)-1-{4-chloro-3-[(3-cyanophenyl)carbonyl]-2-fluorophenyl}propyl]amino}-butanamide], the IC50 in data set [1] (setting [4]) is 0.11 µM; in data set [1] (setting [5]) it was less than 1 µM. In addition, the half-maximal effective concentration (EC50) in data set [2] was 160 nM. For the same compound, the CC50 at 72 h in data set [3] was greater than 3000 nM.

On to `C[C@@H](CC(N)=O)N[C@@H](c1ccc(Cl)c(C(=O)c2ccccc2)c1F)C1CC1` [Example 103, (3S)-3-{[(R)-(3-benzoyl-4-chloro-2-fluorophenyl)-(cyclopropyl)-methyl]-amino}-butanamide], for which the IC50 in data set [1] (setting [4]) is 0.077 µM; in data set [1] (setting [5]), less than 1 µM. In addition, the EC50 in data set [2] was found to be 5.8 nM. For the same compound, the cytotoxic concentration (CC50) at 72 h in data set [3] was greater than 3000 nM.

With `CC[C@@H](N[C@@H](C)CC(N)=O)c1ccc(Cl)c(C(=O)c2ccccn2)c1F` [Example 104, (3S)-3-{[(1R)-1-{4-chloro-2-fluoro-3-[(pyridin-2-yl)carbonyl]phenyl}-propyl]amino}butanamide], the IC50 in data set [1] (setting [4]) is 0.24 µM; in data set [1] (setting [5]), less than 1 µM. Further, the EC50 in data set [2] was determined as 390 nM. In data set [3], this compound had a 50% cytotoxic concentration (CC50) at 72 h greater than 3000 nM.

Consider `CC[C@@H](N[C@@H](C)CC(N)=O)c1ccc(Cl)c(C(=O)c2ccncc2)c1F` [Example 106, (3S)-3-{[(1R)-1-{4-chloro-2-fluoro-3-[(pyridin-4-yl)carbonyl]phenyl}-propyl]amino}butanamide], for which the results for the IC50 in data set [1] (setting [4]) and in data set [1] (setting [5]) were 0.11 µM and less than 1 µM, respectively. In addition, the EC50 in data set [2] amounted to 57 nM. The 50% cytotoxic concentration (CC50) at 72 h in data set [3] is greater than 3000 nM.

Regarding `CC[C@@H](N[C@@H](C)CC(N)=O)c1ccc(Cl)c(C(=O)c2ccns2)c1F` [Example 108, (3S)-3-{[(1R)-1-{4-chloro-2-fluoro-3-[(1,2-thiazol-5-yl)carbonyl]phenyl}propyl]-amino}butanamide], in data set [1] (setting [4]), the IC50 amounted to 0.07 µM. Besides, in data set [2], the half-maximal effective concentration (EC50) is 270 nM. In addition, the CC50 at 72 h in data set [3] is greater than 3000 nM.

Consider `CC[C@@H](N[C@@H](C)CC(N)=O)c1ccc(Cl)c(C(=O)c2cc(C)on2)c1F` [Example 110, (3S)-3-{[(1R)-1-{4-chloro-2-fluoro-3-[(5-methyl-1,2-oxazol-3-yl)carbonyl]-phenyl}-propyl]amino}-butanamide], for which the IC50 in data set [1] (setting [4]) amounted to 0.17 µM. The EC50 in data set [2] amounted to 510 nM. The compound further came in with a cytotoxic concentration (CC50) at 72 h in data set [3] greater than 3000 nM.

Turning to `CC[C@@H](NC(C)(C)CC(N)=O)c1ccc(Cl)c(C(=O)c2cccnc2)c1F` [Example 113, 3-{[(1R)-1-{4-Chloro-2-fluoro-3-[(pyridin-3-yl)carbonyl]phenyl}propyl]amino}-3-methylbutanamide], the IC50 in data set [1] (setting [4]) amounted to 0.093 µM. The EC50 in data set [2] amounted to 180 nM. Moreover, in data set [3], the CC50 at 72 h is greater than 3000 nM.

The term inhibition denotes the relative decrease from the control value, in per cent. The compound `[2H]C([2H])([2H])C([2H])([2H])[C@@H](N[C@@H](C)CC(N)=O)c1ccc(Cl)c(C(=O)c2ccccc2)c1F` [Example 115, (3S)-3-{[(1R)-1-(3-benzoyl-4-chloro-2-fluorophenyl)(2,2,3,3,3-D)propyl]amino}-butanamide] returned an inhibition at 0.1 µM in data set [1] (@ 0.1 uM) of 59%. Besides, in data set [2], the EC50 came out at 4.1 nM. In data set [3], the CC50 at 72 h was greater than 3000 nM.

`CC[C@@H](N[C@@H](C)CC(N)=O)c1ccc(Cl)c(C(=O)c2ccc[n+]([O-])c2)c1F` [Example 116, (S)-3-{(R)-1-[4-Chloro-2-fluoro-3-(1-oxy-pyridine-3-carbonyl)-phenyl]-propylamino}-butyramide]: the IC50 in data set [1] (setting [4]) was 0.81 µM. For the same compound, in data set [2], the EC50 is greater than 3000 nM. For the same compound, the CC50 at 72 h in data set [3] was greater than 3000 nM.

With `C[C@@H](CC(N)=O)N[C@@H](c1ccc(Cl)c(C(=O)c2cccnc2)c1F)C1CC1` [Example 119, (3S)-3-{[(R)-{4-chloro-2-fluoro-3-[(pyridin-3-yl)carbonyl]phenyl} (cyclopropyl)methyl]amino}-butanamide], the IC50 was 0.12 µM in data set [1] (setting [4]) and less than 1 µM in data set [1] (setting [5]). Further, the concentration for a half-maximal effect (EC50) in data set [2] was determined as 71 nM. In addition, the CC50 at 72 h in data set [3] is greater than 3000 nM.

As to `C[C@@H](CC(N)=O)N[C@@H](c1ccc(Cl)c(C(=O)c2ccc(F)cc2)c1F)C1CC1` [Example 121, (3S)-3-{[(R)-{4-chloro-2-fluoro-3-[(4-fluorophenyl)-carbonyl]phenyl}(cyclopropyl)methyl]amino}butanamide], the inhibition at 0.03 µM in data set [1] (@ 0.03 uM) worked out at 38%. Further, the 50% effective concentration (EC50) in data set [2] amounted to 9.9 nM. Also, the CC50 at 72 h in data set [3] was greater than 3000 nM.

On to `CC[C@@H](N[C@@H](C)C1(C(N)=O)CC1)c1ccc(Cl)c(C(=O)c2cccnc2)c1F` [Example 132, 1-[(1S)-1-{[(1R)-1-{4-chloro-2-fluoro-3-[(pyridin-3-yl)carbonyl]phenyl}propyl]amino}ethyl]cyclopropane-1-carboxamide], for which, in data set [1] (setting [4]), the IC50 was 0.14 µM. In addition, the EC50 in data set [2] was found to be 25 nM. Moreover, the CC50 at 72 h in data set [3] was greater than 3000 nM.

With `CC[C@@H](N[C@@H](C)CC(N)=O)c1ccc(Cl)c(C(=O)c2ccc(C#N)nc2)c1F` [Example 133, (3S)-3-{[(1R)-1-{4-chloro-3-[(6-cyanopyridin-3-yl)carbonyl]-2-fluorophenyl}propyl]-amino}butanamide], in data set [1] (setting [4]), the IC50 was determined as 0.12 µM. For the same compound, the EC50 in data set [2] was greater than 3000 nM. Further, the CC50 at 72 h in data set [3] was greater than 3000 nM.

On to `C[C@@H](CC(N)=O)N[C@@H](c1ccc(Cl)c(C(=O)c2ccncc2)c1F)C1CC1` [Example 134, (3S)-3-{[(R)-{4-chloro-2-fluoro-3-[(pyridin-4-yl)carbonyl]phenyl}-(cyclopropyl)methyl]-amino}butanamide], for which the IC50 in data set [1] (setting [4]) is 0.085 µM. In data set [2], the EC50 was 52 nM. This compound also had a CC50 at 72 h in data set [3] greater than 3000 nM.

`CC[C@@H](N[C@@H](C)CC(N)=O)c1ccc(Cl)c(C(=O)c2ccc(-n3cccn3)nc2)c1F` [Example 139, (3S)-3-{[(1R)-1-(4-chloro-2-fluoro-3-{[6-(1H-pyrazol-1-yl)pyridin-3-yl]carbonyl}phenyl)-propyl]amino}-butanamide]: the IC50 in data set [1] (setting [4]) was 0.33 µM; in data set [1] (setting [5]), less than 1 µM. The EC50 in data set [2] stood at 420 nM. This compound registered a CC50 at 72 h in data set [3] greater than 3000 nM.

For `CC[C@@H](N[C@@H](C)CC(N)=O)c1ccc(Cl)c(C(=O)c2cc[n+]([O-])cc2)c1F` [Example 142, (S)-3-{(R)-1-[4-Chloro-2-fluoro-3-(1-oxy-pyridine-4-carbonyl)-phenyl]-propylamino}-butyramide], the IC50 in data set [1] (setting [4]) was 0.3 µM; in data set [1] (setting [5]), less than 1 µM. Besides, in data set [2], the 50% effective concentration (EC50) was greater than 3000 nM. In addition, in data set [3], the half-maximal cytotoxic concentration (CC50) at 72 h is greater than 3000 nM.

`CC[C@@H](N[C@@H](C)CC(N)=O)c1ccc(Cl)c(C(=O)c2ccc(C(=O)O)cc2)c1F` [Example 144, 4-({3-[(1R)-1-{[(2S)-1-Carbamoylpropan-2-yl]amino}propyl]-6-chloro-2-fluorophenyl}carbonyl)-benzoic acid]: the figures for the IC50 in data set [1] (setting [4]) and in data set [1] (setting [5]) were 1.2 µM and 1 to 5 µM, respectively. The half-maximal effective concentration (EC50) in data set [2] was greater than 3000 nM. This compound came in with a CC50 at 72 h in data set [3] greater than 3000 nM.
